# Reference: the supplement of paper PMC10307832
# Experiments:
# Test in all cases: relative viability (nuclei count vs DMSO), 5 days (fraction); higher = more cells survive
# [1] = tested on: PC-3 [JPC-3]
# Outline: (§1)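 Relative viability divides the nuclei count in treated wells by that in vehicle wells. Lung cancer cell lines were seeded in 1536-well plates, dosed by pin tool the next day, and fixed and stained after 5 days in one step with final 0.05% Triton X-100, 1% formaldehyde and 1 ug/ml Hoechst. Dosing was a single drug or a fixed anchor-drug dose plus five library-drug doses (not always all listed) in √10 steps, and values are medians of duplicate plates imaged at 4×.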
# [2] = tested on: HOP-62
# Outline: as §1
# [3] = tested on: LU99A
# Outline: as §1
# [4] = tested on: EKVX
# Outline: as §1
# [5] = tested on: NCI-H3122
# Outline: as §1
# [6] = tested on: HCC-827
# Outline: as §1
# [7] = tested on: LCLC-97TM1
# Outline: as §1
# [8] = tested on: EPLC-272H
# Outline: as §1
# [9] = tested on: UMC-11
# Outline: as §1
# [10] = tested on: SW 1573
# Outline: as §1
# [11] = tested on: H3255
# Outline: as §1
# [12] = tested on: NCI-H1650
# Outline: as §1
# [13] = tested on: NCI-H2228
# Outline: as §1
# [14] = tested on: NCI-H441
# Outline: as §1
# [15] = tested on: LXF-289
# Outline: as §1
# [16] = tested on: NCI-H1355
# Outline: as §1
# [17] = tested on: NCI-H1993
# Outline: as §1
# [18] = tested on: NCI-H2405
# Outline: as §1
# [19] = tested on: ChaGo-K-1
# Outline: as §1
# [20] = tested on: SK-LU-1
# Outline: as §1
compound,measurement,setting,value
Cc1csc(=NC2CCCCC2)n1/N=C/c1ccc(O)c(O)c1O [MIM1] + CC(C)C[C@H](NC(=O)[C@H](Cc1ccccc1)NC(=O)c1cnccn1)B(O)O [Bortezomib] (partner 0.002 µM),relative viability,[1]; first compound 0.2 µM,0.862
same,relative viability,[1]; first compound 0.6325 µM,0.7
same,relative viability,[1]; first compound 2 µM,0.77
same,relative viability,[1]; first compound 6.325 µM,0.703
same,relative viability,[1]; first compound 20 µM,0.496
same,relative viability,[2]; first compound 0.2 µM,1.04
same,relative viability,[2]; first compound 0.6325 µM,0.611
same,relative viability,[2]; first compound 2 µM,0.746
same,relative viability,[2]; first compound 6.325 µM,0.494
same,relative viability,[2]; first compound 20 µM,0.116
same,relative viability,[3]; first compound 0.2 µM,1.08
same,relative viability,[3]; first compound 0.6325 µM,1.08
same,relative viability,[3]; first compound 2 µM,1.1
same,relative viability,[3]; first compound 6.325 µM,0.987
same,relative viability,[3]; first compound 20 µM,0.341
same,relative viability,[4]; first compound 0.2 µM,1.03
same,relative viability,[4]; first compound 0.6325 µM,1.16
same,relative viability,[4]; first compound 2 µM,0.991
same,relative viability,[4]; first compound 6.325 µM,0.601
same,relative viability,[4]; first compound 20 µM,0.33
same,relative viability,[5]; first compound 0.2 µM,1
same,relative viability,[5]; first compound 0.6325 µM,1.06
same,relative viability,[5]; first compound 2 µM,0.999
same,relative viability,[5]; first compound 6.325 µM,0.986
same,relative viability,[5]; first compound 20 µM,0.235
same,relative viability,[6]; first compound 0.2 µM,1.09
same,relative viability,[6]; first compound 0.6325 µM,0.9
same,relative viability,[6]; first compound 2 µM,1.07
same,relative viability,[6]; first compound 6.325 µM,0.402
same,relative viability,[6]; first compound 20 µM,0.465
same,relative viability,[7]; first compound 0.2 µM,0.66
same,relative viability,[7]; first compound 0.6325 µM,0.811
same,relative viability,[7]; first compound 2 µM,0.214
same,relative viability,[7]; first compound 6.325 µM,0.346
same,relative viability,[7]; first compound 20 µM,0.0592
same,relative viability,[8]; first compound 0.2 µM,0.805
same,relative viability,[8]; first compound 0.6325 µM,0.796
same,relative viability,[8]; first compound 2 µM,0.588
same,relative viability,[8]; first compound 6.325 µM,0.732
same,relative viability,[8]; first compound 20 µM,0.483
same,relative viability,[9]; first compound 0.2 µM,0.646
same,relative viability,[9]; first compound 0.6325 µM,0.389
same,relative viability,[9]; first compound 2 µM,0.774
same,relative viability,[9]; first compound 6.325 µM,0.364
same,relative viability,[9]; first compound 20 µM,0.145
same,relative viability,[10]; first compound 0.2 µM,0.937
same,relative viability,[10]; first compound 0.6325 µM,1.05
same,relative viability,[10]; first compound 2 µM,0.978
same,relative viability,[10]; first compound 6.325 µM,0.811
same,relative viability,[10]; first compound 20 µM,0.592
same,relative viability,[11]; first compound 0.2 µM,0.861
same,relative viability,[11]; first compound 0.6325 µM,0.634
same,relative viability,[11]; first compound 2 µM,0.666
same,relative viability,[11]; first compound 6.325 µM,0.538
same,relative viability,[11]; first compound 20 µM,0.24
same,relative viability,[12]; first compound 0.2 µM,0.263
same,relative viability,[12]; first compound 0.6325 µM,0.204
same,relative viability,[12]; first compound 2 µM,0.188
same,relative viability,[12]; first compound 6.325 µM,0.212
same,relative viability,[12]; first compound 20 µM,0.165
same,relative viability,[13]; first compound 0.2 µM,1.02
same,relative viability,[13]; first compound 0.6325 µM,1.09
same,relative viability,[13]; first compound 2 µM,1.09
same,relative viability,[13]; first compound 6.325 µM,0.414
same,relative viability,[13]; first compound 20 µM,0.246
same,relative viability,[14]; first compound 0.2 µM,0.593
same,relative viability,[14]; first compound 0.6325 µM,0.418
same,relative viability,[14]; first compound 2 µM,0.681
same,relative viability,[14]; first compound 6.325 µM,0.521
same,relative viability,[14]; first compound 20 µM,0.171
same,relative viability,[15]; first compound 0.2 µM,0.986
same,relative viability,[15]; first compound 0.6325 µM,0.791
same,relative viability,[15]; first compound 2 µM,1.03
same,relative viability,[15]; first compound 6.325 µM,0.826
same,relative viability,[15]; first compound 20 µM,0.634
same,relative viability,[16]; first compound 0.2 µM,1.26
same,relative viability,[16]; first compound 0.6325 µM,0.978
same,relative viability,[16]; first compound 2 µM,1.22
same,relative viability,[16]; first compound 6.325 µM,0.871
same,relative viability,[16]; first compound 20 µM,0.916
same,relative viability,[17]; first compound 0.2 µM,1.18
same,relative viability,[17]; first compound 0.6325 µM,1.03
same,relative viability,[17]; first compound 2 µM,1.11
same,relative viability,[17]; first compound 6.325 µM,0.774
same,relative viability,[17]; first compound 20 µM,0.473
same,relative viability,[18]; first compound 0.2 µM,0.959
same,relative viability,[18]; first compound 0.6325 µM,1.01
same,relative viability,[18]; first compound 2 µM,0.961
same,relative viability,[18]; first compound 6.325 µM,0.788
same,relative viability,[18]; first compound 20 µM,0.358
same,relative viability,[19]; first compound 0.2 µM,1.03
same,relative viability,[19]; first compound 0.6325 µM,0.972
same,relative viability,[19]; first compound 2 µM,1.06
same,relative viability,[19]; first compound 6.325 µM,0.729
same,relative viability,[19]; first compound 20 µM,0.29
same,relative viability,[20]; first compound 0.2 µM,1.05
same,relative viability,[20]; first compound 0.6325 µM,1.09
same,relative viability,[20]; first compound 2 µM,1.09
same,relative viability,[20]; first compound 6.325 µM,0.962
same,relative viability,[20]; first compound 20 µM,0.947
